Source: patent US20160089377A1, “THERAPEUTIC TARGETING OF THE MTOR PATHWAY IN NEURODEVELOPMENTAL AND NEUROPSYCHIATRIC DISEASE” (THE TRUSTEES OF COLUMBIA UNIVERISTY IN THE CITY OF NEW YORK, priority 2013, published 2016)
“Also recorded” adds a separate entry of the source.

Columns and labels:
[1] = test system: pyramidal cells of Cntnap2 (Caspr2) mutant mice; test: Soma size quantitation of pyramidal cells after WYE125132 treatment; type: in vivo
Source text: In order to assess whether we could reverse or prevent the cellular abnormalities (i.e., enlarged pyramidal cell size), we treated with WYE125132 (‘Tx’ in FIG. 12) or vehicle (‘veh’ in FIG. 12) Caspr2^+/−/Thy1-YFP/H and Caspr2^−/−/Thy-1-YFP/H mice and WT littermates also positive for YFP/H for the entire period P12-P35. The mice were perfused and subsequently fixed with 4% PFA and sectioned coronally at 16 microns. Subsequently, 200× images were taken using an epifluorescent microscope of somatosensory and auditory cortex—a total of 15 images per animal/cortical region. The cell somata were traced on Photoshop to quantify pixels. We then converted the pixels to square microns. For the analysis listed here, Caspr2^+/−/Thy1-YFP/H and
Cntnap2 mutant and WT mice were obtained from heterozygous crossings and were born with the expected Mendelian frequencies. […]
WYE125132 (Chemscene) was administered by a daily p.o. gavaging in a volume of 10 ml/kg. […] For the two-photon and cell size quantitation studies, mice were gavaged from P12 to p35, after they were
Soma Size Quantitation. […]
perfused with PBS and then 4% PFA and subsequently post-fixed in 4% PFA for 1 hour at 4° C. […] Sections containing auditory and somatosensory cortices were analyzed. […] Soma size was determined by manually tracing pyramidal cell somata and measuring pixel number per selection. […] For each animal, 90 to 140 somata were measured. […]

[2] = test system: dendritic spines in the frontal association cortex; test: In vivo transcranial two-photon microscopy of dendritic spine formation and elimination; parameters: species or system mice
Source text: In order to assess whether we could reverse or prevent the abnormalities in spine dynamics in Caspr2 mutants, we treated Caspr2^+/−/Thy1-YFP/H, Caspr2^−/−/Thy-1-YFP/H mice, and WT littermates also positive for YFP/H from P12-P32 with either WYE125132 or with vehicle. One-month old (P30±1) male mice were used in the experiments. Spine formation and elimination were examined by imaging the mouse cortex through a thinned-skull window as described previously. Briefly, 1-mo old male mice expressing YFP were anaesthetized with ketamine and xylazine (intraperitoneal; 20 mg/ml and 3 mg/ml, respectively, in saline; 6 μl per gram of body weight). Thinned-skull windows were made in head-fixed mice with high-speed microdrills. Skull thickness was reduced to about 20 μm. A twophoton microscope tuned to 920 nm (×60 water immersion lens; numerical aperture,1.1) was used to acquire images. For re-imaging of the same region, thinned regions were identified on the basis of the maps of the brain vasculature. Microsurgical blades were used to re-thin the region of interest until a clear image could be obtained. The area of the imaging region was 200 μm×200 μm in the frontal association cortex. The centers of the imaging regions were as follows: +2.8 mm bregma, +1.0 mm midline.
(§1) WYE125132 (Chemscene) was administered by a daily p.o. gavaging in a volume of 10 ml/kg. For all behavioral experiments, dams were treated from PO to P12 after which individual pups were gavaged on a daily basis going forward. Mice also received drug treatment on the days of testing, at least 1 hour prior the experiment. For the two-photon and cell size quantitation studies, mice were gavaged from P12 to p35, after they were
One-month-old (P30±1) male mice were used in the experiments. Spine formation and elimination were examined by imaging the mouse frontal association cortex through a thinned-skull window as described previously (Lai, 2012).
To examine whether we could reverse the abnormalities in dendritic spine dynamics in the frontal association cortex, we gavaged the mice daily from P12 to P32 with WYE125132 versus vehicle.

Cntnap2 mutant mice = test: Social interaction test (10-minute interval) and grooming; type: in vivo
Description: Cntnap2 mutant and WT mice were obtained from heterozygous crossings and were born with the expected Mendelian frequencies. The three obtained genotypes were housed together. Mice were treated with p.o. gavaging once per day with either WYE125132 (10 mg/kg) or vehicle. All procedures involving animals were performed in accordance with the Columbia University/New York State Psychiatric Institute animal research committee.
as §1
Mice were marked with ear tagging. Experimenters were blinded to the genotype during testing. Behavioral tests were performed in the New York State Psychiatric Institute behavioral test core facility.
Detailed measurements of interaction between pairs of mice placed together in standard cages provide insights into reciprocal social interactions (Silverman et al., 2010). We examined (i) whether juvenile Cntnap2 mutant mice display decreased social interaction over a 10-minute interval and (ii) whether mutant mice have reduced tendency to approach novel social stimuli, as evidenced by social inhibition in the first minute of the tested interval (Curley et al., 2009). The first minute of this social interaction paradigm represents the phase when preference for social novelty is normally established. There were significant differences between genotypes in the amount of time spent on social investigation of the stimulus animal both in the first minute of the test (One-Way ANOVA F2,38=5.01, P<0.05; FIG. 15A) as well as over the entire 10-minute test (F2,38=3.27, P<0.05; FIG. 15A). Both Cntnap2^+/− and Cntnap2^−/− mice investigated the stimulus mouse for less time than their wild-type (WT) littermates (Dunnett post-hoc tests, all P<0.05).
Mutant mice were treated with WYE125132 or vehicle by daily gavaging.

CNC(=O)Nc1ccc(-c2nc(N3CC4CCC(C3)O4)c3cnn(C4CCC5(CC4)OCCO5)c3n2)cc1 [WYE125132]
enlarged pyramidal cell soma size ([1]; Cntnap2+/- and Cntnap2-/- (Caspr2) mutant mice, daily p.o. gavage 10 mg/kg, P12 to P33-36 (about 3 weeks), 10 mg/kg): completely reverses the enlarged pyramidal cell size; also recorded: complete reversal of the pyramidal cell enlargement phenotype; also recorded: entirely rescued | soma size in WT animals ([1]; WT mice, compound versus vehicle): no effect on soma size | spine formation (in words) ([2]; Caspr2+/-/Thy1-YFP/H mice, P12-P32, P<0.0058): increase in spine formation | spine elimination (in words) ([2]; Caspr2+/-/Thy1-YFP/H mice, P12-P32, versus vehicle, P<0.006): dramatic prevention of spine elimination | spine elimination (in words) ([2]; Caspr2-/-/Thy-1-YFP/H mice, P12-P32, versus vehicle, P<0.04): statistically significant prevention | rate of spine elimination ([2]; Cntnap2+/- mice gavaged daily P12 to P32 with WYE125132): 8.5%±2.0% | rate of spine elimination ([2]; Cntnap2-/- mice gavaged daily P12 to P32 with WYE125132): 9.5%±1.6% | spine elimination (in words) ([2]; both Cntnap2+/- and Cntnap2-/- mutant mice, P12 to P32): reduced back to levels seen in the WT littermates; also recorded: rescues excessive spine elimination | number (total frequency) of social interactions over the whole 10-minute interval (Cntnap2 mutant mice; Cntnap2+/- mice, daily gavage, P<0.05): rescued; also recorded: corrects | social interaction deficits in the first minute of testing (Cntnap2 mutant mice; Cntnap2+/- mice, daily gavage, versus vehicle, P<0.01): reversal of the social interaction deficits; also recorded: corrects the social interaction deficits | maximum grooming bout duration (Cntnap2 mutant mice; Cntnap2+/- mutant mice, WYE125132 versus vehicle, P<0.05): increased significantly | time spent sniffing the stimulus mouse in the very first part of the test (Cntnap2 mutant mice; Cntnap2 mutant mice): increases the time | time spent sniffing the stimulus mouse in the very first part of the test (Cntnap2 mutant mice; WT littermates): no such effect
